These results are taken from ChEMBL document CHEMBL3046409, “Studies on radioprotective and antiviral activities of some bischalcone derivatives” (Med Chem Res, 2012).

The nature of series [1]: Cytotoxicity against Chlorocebus aethiops (African green monkey) Vero cells assessed as maximum non-toxic concentration after 24 hr. In kind it is cell-based. Particulars: chlorocebus sabaeus, read-out: Activity.
Series [2] relates to Camelpox virus. In words: Antiviral activity against Camelpox virus infected African green monkey Vero cells assessed as reduction of viral titer after 48 hr. Type of series: functional.
Series [3] relates to Buffalopox virus. The experiment in a line: Antiviral activity against Buffalopox virus infected African green monkey Vero cells assessed as reduction of viral titer after 48 hr. In kind it is functional.

As for `O=C1/C(=C/c2ccc(F)cc2)CC/C1=C\c1ccc(F)cc1`, the MNTC at 24 h in series [1] is 0.0833 µg/mL. The “inhibition (INH)” value was found to be 54.29% in series [2] and 73.69% in series [3].
